Reference: patent publication US12403104B2, “Compounds and methods of promoting myelination” (Case Western Reserve University, priority 2016, dated 2025)

Tests used:
[1] = tested on: mouse epiblast stem cell-derived OPCs; assay: In vitro phenotypic screening of OPCs (MBP+ oligodendrocytes at 72 h); type: cell-based
Method: Then, 40,000 cells were seeded per well in differentiation medium and allowed to attach for 30 min before addition of drug. […] Sterols were added to cells as an ethanol solution (0.2% final ethanol concentration). […] Cells were incubated under standard conditions (37° C., 5% CO2) for 3 days and fixed with 4% paraformaldehyde (PFA) in phosphate buffered saline (PBS) for 20 min. Fixed plates were washed with PBS (200 μL per well) twice, permeabilized with 0.1% Triton X-100 and blocked with 10% donkey serum (v/v) in PBS for 40 min. […] Nuclei were visualized by DAPI staining (Sigma; 1 μg/ml).

mouse primary OPCs = assay: MBP+ oligodendrocyte formation from mouse primary OPCs; type: cell-based; conditions: 72 h
Method: To obtain mouse primary OPCs, whole brain was removed from post-natal day 2 pups anesthetized on ice. Brains were placed in cold DMEM/F12, and the cortices were isolated and the meninges were removed. The cortices were manually chopped and processed with the Tumor Dissociation Kit (Miltenyi) and incubated at 37° C. for 10 minutes. The cell suspension was filtered through a […] filter and centrifuged at 200×g for 4 minutes at room temperature. The cells were washed in DMEM/F12, re-centrifuged and plated in poly-Ornithine and Laminin-treated flasks containing DMEM/P12 supplemented with N2 Max, B27 (ThermoFisher), 20 ng/mL FGF, and 20 ng/mL PDGF. […] were passaged once prior to treatment. Media was changed every 48 hours.
Then, 40,000 cells were seeded per well in differentiation medium and allowed to attach for 30 min before addition of drug. For dose-response testing of all molecules except sterols, a 1000× compound stock in dimethyl sulphoxide (DMSO) was added to assay plates with 0.1 μL solid pin multi-blot replicators (V & P Scientific; VP 409), resulting in a final primary screening concentration of 1×. Sterols were added to cells as an ethanol solution (0.2% final ethanol concentration). […] Cells were incubated under standard conditions (37° C., 5% CO2) for 3 days and fixed with 4% paraformaldehyde (PFA) in phosphate buffered saline (PBS) for 20 min. […]

OPCs = assay: GC/MS-based sterol profiling in OPCs; type: cell-based, mouse; conditions: GC/MS, 24 h treatment (siRNA 96 h)
EBP = biological target: T1, EBP (Mus musculus, UniProt P70245); assay: EBP enzymatic assay (GC/MS); type: biochemical; conditions: 10 μM, zymostenol 25 μM
T1 construct: active EBP was obtained from mouse microsomes; from tissue
T1 sequence (P70245 1-230): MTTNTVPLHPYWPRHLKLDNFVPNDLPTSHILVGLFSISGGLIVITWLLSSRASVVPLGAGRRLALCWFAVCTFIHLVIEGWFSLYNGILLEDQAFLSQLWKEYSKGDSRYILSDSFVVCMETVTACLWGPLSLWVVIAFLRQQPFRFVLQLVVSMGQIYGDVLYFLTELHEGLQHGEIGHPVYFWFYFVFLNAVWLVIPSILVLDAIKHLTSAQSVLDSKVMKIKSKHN

LPC-lesioned spinal cord [2] = assay: LPC focal demyelination of spinal cord, remyelination; type: in vivo, mouse; conditions: ifenprodil 10 mg per kg, tamoxifen 2 mg per kg, daily intraperitoneal, 8 days
[3] = tested on: human glioma cells (GBM528); assay: GC/MS sterol profiling in human glioma cell line; type: cell-based; conditions: 24 h
LPC-lesioned spinal cord [4] = conditions: earlier work; cited from earlier work

## Cc1cc(C)c(CNC(=O)c2cc(-c3ccc(CN4CCOCC4)cc3)cc3c2cnn3C2CCCC2)c(=O)[nH]1 [EPZ005687]
[1]
  formation of MBP+ oligodendrocytes from OPCs: enhanced oligodendrocyte formation
Mouse primary OPCs
  oligodendrocyte formation from mouse primary OPCs: enhanced oligodendrocyte formation
OPCs
  sterol levels / sterol intermediate accumulation in OPCs: uniquely caused accumulation of zymosterol and zymostenol in OPCs
EBP
  inhibition of EBP enzymatic activity: directly inhibiting EBP enzymatic activity

## CC(C(O)c1ccc(O)cc1)N1CCC(Cc2ccccc2)CC1 (stereo not drawn) [ifenprodil, Ifenprodil]
LPC-lesioned spinal cord [2]
  remyelination of LPC lesion: remyelination was widespread throughout the lesion
[3]
  accumulation of sterol intermediates in human glioma cell line: caused accumulation of the expected sterol intermediates

## Clc1ccc(COC(Cn2ccnc2)c2ccc(Cl)cc2Cl)c(Cl)c1 (stereo not drawn) [miconazole, Miconazole]
[3]
  accumulation of sterol intermediates in human glioma cell line: caused accumulation of the expected sterol intermediates
LPC-lesioned spinal cord [4]
  remyelination in mouse models of demyelination (previously established): enhances remyelination in mouse models of demyelination

## CC/C(=C(\c1ccccc1)c1ccc(OCCN(C)C)cc1)c1ccccc1 [tamoxifen, Tamoxifen]
OPCs
  sterol levels / sterol intermediate accumulation in OPCs: induced accumulation of zymostenol and zymosterol and decreased basal sterol levels
EBP
  inhibition of EBP enzymatic activity: clear inhibition
LPC-lesioned spinal cord [2]
  remyelination of LPC lesion: remyelination was widespread throughout the lesion
[3]
  accumulation of sterol intermediates in human glioma cell line: caused accumulation of the expected sterol intermediates
